Earlier results as cited in patent US6620844B2, “Method for reducing blood insulin levels by reducing in vivo cathepsin L activity” (NewMillennium Pharmaceutical, Inc., priority 2001, dated 2003).
Non-standard residues stand in square brackets, D forms with d. Residues, ends and D or L forms follow the SMILES beside them. *: point of attachment. Cbz = O=C(OCc1ccccc1)*

Legend:
Conditions in all cases: cited from earlier work
[1] = molecular target: T1, Cathepsin K (Homo sapiens, UniProt P43235)
T1 sequence (P43235 115-329): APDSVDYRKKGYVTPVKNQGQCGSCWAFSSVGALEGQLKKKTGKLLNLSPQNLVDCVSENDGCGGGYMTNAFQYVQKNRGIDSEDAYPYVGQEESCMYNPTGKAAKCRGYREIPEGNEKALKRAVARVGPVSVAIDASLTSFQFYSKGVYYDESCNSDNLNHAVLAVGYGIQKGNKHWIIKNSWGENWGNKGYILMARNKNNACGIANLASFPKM

[2] = molecular target: Cathepsin L (Homo sapiens, UniProt P07711)
Chain of Cathepsin L (P07711 114-333, species assumed): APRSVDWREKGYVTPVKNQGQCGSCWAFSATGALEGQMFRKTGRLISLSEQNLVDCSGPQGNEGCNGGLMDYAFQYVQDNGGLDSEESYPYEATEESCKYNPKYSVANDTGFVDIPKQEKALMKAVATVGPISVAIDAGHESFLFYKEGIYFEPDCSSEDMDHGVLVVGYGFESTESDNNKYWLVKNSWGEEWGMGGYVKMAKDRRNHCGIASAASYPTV

[3] = molecular target: Cathepsin B (Homo sapiens, UniProt P07858)
[4] = molecular target: Cathepsin S (Homo sapiens, UniProt P25774)
Chain of Cathepsin S (P25774 115-331, species assumed): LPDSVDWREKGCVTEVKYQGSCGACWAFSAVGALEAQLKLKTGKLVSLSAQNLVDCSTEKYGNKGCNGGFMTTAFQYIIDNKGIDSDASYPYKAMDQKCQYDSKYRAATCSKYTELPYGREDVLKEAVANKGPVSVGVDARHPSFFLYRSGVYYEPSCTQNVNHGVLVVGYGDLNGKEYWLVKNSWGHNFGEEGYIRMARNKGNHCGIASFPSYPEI

| SMILES | IC50 [2] [µM] | IC50 [3] [µM] | Ki [1] [µM] | Ki [3] [µM] | also measured |
| --- | --- | --- | --- | --- | --- |
| N#CN1CCC(NC(=O)Cc2ccccc2)C1 (centres unmarked) | 0.054 | 0.2 | – | – | IC50 [1]: 0.04 µM |
| O=C(N[C@@H](Cc1ccc2ccccc2c1)C(=O)N[C@H]1CCCN(S(=O)(=O)c2ccccn2)CC1=O)c1cccc2ccccc12 | – | – | 0.42 to 0.503 | – | – |
| O=C[C@H](Cc1c[nH]c2ccccc12)NC(=O)C(Cc1ccccc1)Cc1ccccc1 | < 0.032 | > 1 | – | – | – |
| O=C[C@@H](Cc1ccc(O)cc1)NC(=O)[C@H](Cc1ccccc1)NC(=O)OCc1ccccc1 (Cbz-Phe-[dY]-aldehyde) | – | – | – | – | Cathepsin L selectivity, in words [2]: Cathepsin L. Selective (Woo et al. Bioorg. Med. Chem. 5, 1501, 1995) |
| N#CN1CC(NC(=O)CC2CCCCC2)C1 | 0.006 | 0.15 | – | – | IC50 [1]: 0.005 µM |
| CC(C)CC(NC(=O)[C@@H](Cc1ccccc1)NC(=O)OCc1ccccc1)C(=O)C=O (some centres unmarked) | – | – | – | 0.00076 | Ki [4]: 0.000185 µM |
| CC(C)C[C@H](NC(=O)[C@H](CC(C)C)NC(=O)OCc1ccccc1)C(=O)COCc1ccc(-c2ccccc2)cc1 | – | – | 0.022 | 1.31 | Ki [2]: 0.063 µM |
| CC(C)C[C@H](NC(=O)N1CCOCC1)C(=O)N[C@H](/C=C/S(=O)(=O)c1ccccc1)CCc1ccccc1 | – | – | – | – | Ki [4]: 0.005 µM |
| CC(C)CC(NC(=O)[C@H](CC(C)C)NC(=O)OCc1ccccc1)C(=O)COCc1ccc(-c2ccccc2)cc1 (some centres unmarked) | – | – | 0.022 | 1.31 | Ki [2]: 0.063 µM |
| O=C(N[C@@H](Cc1ccc2ccccc2c1)C(=O)N[C@H]1CCCN(S(=O)(=O)c2ccccn2)CC1=O)c1cccc2cccnc12 | – | – | 0.42 to 0.503 | – | – |
